Measurements from the supplement of paper PMC10307832.

What was measured:
Assay in all cases: relative viability (nuclei count vs DMSO), 5 days (fraction); higher = more cells survive
[1] = compound: O=c1[nH]cc(F)c(=O)[nH]1 [5-Fluorouracil] + CC(=O)c1c(C)c2cnc(Nc3ccc(N4CCNCC4)cn3)nc2n(C2CCCC2)c1=O [Palbociclib] (partner 0.5 µM)
Outline: (§1)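 Dosing by pin tool came one day after lung cancer cell lines were seeded in 1536-well plates, using either one drug or a fixed anchor-drug dose plus five library-drug doses (not always all listed) in √10 steps. After 5 days, nuclei were counted on 4× images. Relative viability is treated-well nuclei count divided by vehicle-well nuclei count, and values are medians of duplicate plates.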

[2] = compound: CN[C@@H]1C[C@H]2O[C@@](C)([C@@H]1OC)n1c3ccccc3c3c4c(c5c6ccccc6n2c5c31)C(=O)NC4 [Staurosporine] + C[C@]1(O)C[C@@H](c2nc(-c3ccc4ccc(-c5ccccc5)nc4c3)c3c(N)nccn32)C1 [Linsitinib] (partner 1 µM)
Outline: as §1

[3] = compound: CN[C@@H]1C[C@H]2O[C@@](C)([C@@H]1OC)n1c3ccccc3c3c4c(c5c6ccccc6n2c5c31)C(=O)NC4 [Staurosporine] + CS(=O)(=O)N1CCN(Cc2cc3nc(-c4cccc5[nH]ncc45)nc(N4CCOCC4)c3s2)CC1 [Pictilisib] (partner 1 µM)
Outline: as §1

[4] = compound: O=c1[nH]cc(F)c(=O)[nH]1 [5-Fluorouracil] + Nc1nc2[nH]cc(CCc3ccc(C(=O)N[C@@H](CCC(=O)O)C(=O)O)cc3)c2c(=O)[nH]1 [Pemetrexed] (partner 0.2 µM)
Outline: as §1

Cell Line | relative viability ([1]; first compound 0.02 µM) | relative viability ([1]; first compound 0.2 µM) | relative viability ([1]; first compound 0.6325 µM) | relative viability ([1]; first compound 2 µM) | relative viability ([2]; first compound 0.005 µM) | relative viability ([2]; first compound 0.01581 µM) | relative viability ([2]; first compound 0.05 µM) | relative viability ([2]; first compound 0.1581 µM) | relative viability ([2]; first compound 0.5 µM) | relative viability ([3]; first compound 0.005 µM) | relative viability ([3]; first compound 0.01581 µM) | relative viability ([3]; first compound 0.05 µM) | relative viability ([3]; first compound 0.1581 µM) | relative viability ([3]; first compound 0.5 µM) | relative viability ([4]; first compound 0.02 µM) | relative viability ([4]; first compound 0.2 µM) | relative viability ([4]; first compound 0.6325 µM) | relative viability ([4]; first compound 2 µM)
PC-14 | 0.585 | 0.504 | 0.435 | 0.311 | 0.892 | 0.633 | 0.0982 | 0.0802 | 0.0859 | 0.237 | 0.12 | 0.0413 | 0.0584 | 0.0397 | 0.128 | 0.14 | 0.147 | 0.18
HARA | 0.305 | 0.261 | 0.267 | 0.286 | 0.762 | 0.192 | 0.155 | 0.0968 | 0.0872 | 0.193 | 0.23 | 0.0859 | 0.0523 | 0.062 | 0.244 | 0.231 | 0.212 | 0.289
NCI-H23 | 0.527 | 0.551 | 0.325 | 0.245 | 0.419 | 0.234 | 0.213 | 0.219 | 0.155 | 0.319 | 0.114 |  | 0.162 | 0.113 | 0.944 | 0.63 | 0.408 | 0.337
LCLC-97TM1 | 0.221 | 0.228 | 0.215 | 0.157 | 0.237 | 0.163 | 0.163 | 0.207 | 0.144 | 0.197 | 0.0972 | 0.152 | 0.119 | 0.153 | 0.146 | 0.218 | 0.165 | 0.176
LC-2-ad | 0.519 | 0.523 | 0.467 | 0.325 | 0.817 | 0.434 | 0.192 | 0.0865 | 0.0668 | 0.591 | 0.159 | 0.143 | 0.0807 | 0.0527 | 0.258 | 0.286 | 0.282 | 0.272
NCI-H1666 | 0.677 | 0.642 | 0.647 | 0.609 | 0.475 | 0.42 | 0.322 | 0.238 | 0.221 | 0.374 | 0.267 | 0.322 | 0.176 | 0.149 | 0.922 | 0.763 | 0.61 | 0.548
EKVX |  | 0.276 |  | 0.175 | 0.624 | 0.357 | 0.22 | 0.183 | 0.109 | 0.403 | 0.218 | 0.184 | 0.163 | 0.121 | 0.305 | 0.283 |  | 
SW 1573 | 0.398 | 0.353 | 0.29 | 0.236 | 0.586 | 0.449 | 0.144 | 0.131 | 0.107 | 0.275 | 0.18 | 0.123 | 0.0832 | 0.0842 | 0.853 | 0.815 | 0.704 | 0.408
HCC-827 | 0.46 | 0.455 | 0.231 | 0.255 | 0.992 | 0.853 | 0.726 | 0.769 | 0.624 | 1.24 | 0.812 | 0.559 | 0.552 | 0.43 | 0.238 | 0.239 | 0.273 | 0.262
NCI-H727 | 0.839 | 0.685 | 0.745 | 0.607 | 0.225 | 0.234 | 0.268 | 0.277 | 0.129 | 0.486 | 0.293 | 0.2 | 0.223 | 0.12 |  |  |  | 
CAL-12T | 0.515 | 0.419 | 0.359 | 0.251 | 0.57 | 0.334 | 0.213 | 0.136 | 0.115 | 0.303 | 0.0968 | 0.135 | 0.19 | 0.218 | 1.19 | 1 | 0.942 | 0.657
NCI-H1648 | 0.297 | 0.267 | 0.281 | 0.241 |  |  |  |  |  |  |  |  |  |  | 0.816 | 0.864 | 0.572 | 0.332
NCI-H522 | 1 | 1.05 | 0.96 | 0.992 |  |  |  |  |  |  |  |  |  |  | 0.891 | 1.1 | 1.03 | 0.95
IA-LM |  |  |  |  |  | 0.271 | 0.16 | 0.128 | 0.07 | 0.266 | 0.323 | 0.256 | 0.0809 | 0.0459 |  |  |  | 
EPLC-272H | 0.319 | 0.36 | 0.3 | 0.343 | 1.17 | 0.732 | 0.352 | 0.25 | 0.234 | 0.333 | 0.141 | 0.176 | 0.1 | 0.0694 | 0.242 | 0.23 | 0.269 | 0.274
A-427 | 0.529 | 0.518 | 0.49 | 0.364 | 1.05 |  | 0.43 | 0.313 | 0.189 | 0.524 | 0.335 | 0.329 | 0.103 | 0.106 | 0.852 | 0.984 | 0.866 | 0.55
NCI-H661 | 0.407 | 0.436 | 0.425 | 0.419 | 0.458 | 0.384 | 0.258 | 0.245 | 0.226 | 0.345 | 0.265 | 0.277 | 0.245 | 0.271 | 0.998 | 0.905 | 0.947 | 0.883
NCI-H1993 | 0.681 | 1.19 | 0.469 | 0.494 | 0.761 | 0.634 | 0.605 | 0.439 | 0.55 | 0.869 | 0.646 | 0.66 | 0.526 | 0.565 | 0.559 | 0.49 | 0.577 | 0.525
NCI-H358 | 0.157 | 0.146 | 0.15 | 0.177 | 0.573 | 0.281 | 0.189 | 0.152 | 0.122 | 0.317 | 0.261 | 0.162 | 0.141 | 0.139 | 0.177 | 0.182 | 0.172 | 0.169
SK-LU-1 | 0.398 | 0.388 | 0.382 | 0.373 | 0.313 | 0.263 | 0.205 | 0.2 | 0.145 | 0.412 | 0.187 | 0.145 | 0.137 | 0.124 | 0.959 | 1.01 | 0.916 | 0.763
